Literature values in patent US20060276498A1 (Wyeth, priority 2005, published 2006).

Target: Tpl2 (Homo sapiens, UniProt P41279)
Conditions: background statement; cited from earlier work

Tpl2, sequence (P41279 whole entry): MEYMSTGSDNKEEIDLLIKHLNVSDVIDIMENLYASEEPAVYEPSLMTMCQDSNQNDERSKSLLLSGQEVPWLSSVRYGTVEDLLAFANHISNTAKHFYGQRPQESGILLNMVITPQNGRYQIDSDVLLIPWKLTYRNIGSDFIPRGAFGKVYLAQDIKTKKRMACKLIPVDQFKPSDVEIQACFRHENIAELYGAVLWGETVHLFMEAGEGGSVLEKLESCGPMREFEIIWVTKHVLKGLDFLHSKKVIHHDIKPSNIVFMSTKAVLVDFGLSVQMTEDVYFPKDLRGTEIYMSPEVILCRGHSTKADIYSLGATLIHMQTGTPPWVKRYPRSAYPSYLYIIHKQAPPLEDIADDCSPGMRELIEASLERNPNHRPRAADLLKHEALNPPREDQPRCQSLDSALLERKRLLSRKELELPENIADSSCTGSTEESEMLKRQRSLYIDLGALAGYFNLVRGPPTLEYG

CN[C@@H]1C[C@H]2O[C@@](C)([C@@H]1OC)n1c3ccccc3c3c4c(c5c6ccccc6n2c5c31)C(=O)NC4 [staurosporine]
inhibition of Tpl2: not inhibited
